Source: PubChem BioAssay AID588803 (The Scripps Research Institute Molecular Screening Center, 2011)
The source made the active and inactive calls. How the calls were made is not given here.

What was measured:
Assay in all cases: PME-1 and off-target engagement in cells – ABPP-SILAC, LC-MS/MS, mouse cells, selectivity assay for PME-1 inhibitor project, late-stage follow-up (AID 588803)
Abhd11 = settings: serine hydrolase ratios, stronger effect = lower value
Abhd12 = settings: serine hydrolase ratios, stronger effect = lower value
Ache = settings: serine hydrolase ratios, stronger effect = lower value
Acot1 = settings: serine hydrolase ratios, stronger effect = lower value
Acot2 = settings: serine hydrolase ratios, stronger effect = lower value
Acot7 = settings: serine hydrolase ratios, stronger effect = lower value
Acot9 = settings: serine hydrolase ratios, stronger effect = lower value
[1] = target: Acyl-protein thioesterase 1 (Mus musculus) (UniProt P97823); settings: serine hydrolase ratios, Lypla1, stronger effect = lower value
Apeh = settings: serine hydrolase ratios, stronger effect = lower value
Bat5 = settings: serine hydrolase ratios, stronger effect = lower value
Ctsa = settings: serine hydrolase ratios, stronger effect = lower value
Ddhd2 = settings: serine hydrolase ratios, stronger effect = lower value
Dpp7 = settings: serine hydrolase ratios, stronger effect = lower value
Dpp8 = settings: serine hydrolase ratios, stronger effect = lower value
Dpp9 = settings: serine hydrolase ratios, stronger effect = lower value
Faah = settings: serine hydrolase ratios, stronger effect = lower value
Fam108b1 = settings: serine hydrolase ratios, stronger effect = lower value
Fasn = settings: serine hydrolase ratios, stronger effect = lower value
Htra2 = settings: serine hydrolase ratios, stronger effect = lower value
Iah1 = settings: serine hydrolase ratios, stronger effect = lower value
Lypla2 = settings: serine hydrolase ratios, stronger effect = lower value
Lyplal1 = settings: serine hydrolase ratios, stronger effect = lower value
[2] = target: Monoacylglycerol lipase ABHD6 (Mus musculus) (UniProt Q8R2Y0); settings: serine hydrolase ratios, stronger effect = lower value
Nceh1 = settings: serine hydrolase ratios, stronger effect = lower value
Pafah1b2 = settings: serine hydrolase ratios, stronger effect = lower value
Pafah1b3 = settings: serine hydrolase ratios, stronger effect = lower value
[3] = target: Palmitoyl-protein thioesterase ABHD10, mitochondrial (Mus musculus) (UniProt Q6PE15); settings: serine hydrolase ratios, stronger effect = lower value
Parl = settings: serine hydrolase ratios, stronger effect = lower value
Pgap1 = settings: serine hydrolase ratios, stronger effect = lower value
Pla2g15 = settings: serine hydrolase ratios, stronger effect = lower value
Pla2g6 = settings: serine hydrolase ratios, stronger effect = lower value
[4] = target: Platelet-activating factor acetylhydrolase 2, cytoplasmic (Mus musculus) (UniProt Q8VDG7); settings: serine hydrolase ratios, Pafah2, stronger effect = lower value
Pme1 = settings: serine hydrolase ratios, stronger effect = lower value
Pnpla8 = settings: serine hydrolase ratios, stronger effect = lower value
Ppt2 = settings: serine hydrolase ratios, stronger effect = lower value
Prcp = settings: serine hydrolase ratios, stronger effect = lower value
Prepl = settings: serine hydrolase ratios, stronger effect = lower value
[5] = target: Prolyl endopeptidase (Mus musculus) (UniProt Q9QUR6); settings: serine hydrolase ratios, Prep, stronger effect = lower value
Rbbp9 = settings: serine hydrolase ratios, stronger effect = lower value
Serhl = settings: serine hydrolase ratios, stronger effect = lower value

Chain of Acyl-protein thioesterase 1 (Mus musculus) (P97823 whole entry, looked up): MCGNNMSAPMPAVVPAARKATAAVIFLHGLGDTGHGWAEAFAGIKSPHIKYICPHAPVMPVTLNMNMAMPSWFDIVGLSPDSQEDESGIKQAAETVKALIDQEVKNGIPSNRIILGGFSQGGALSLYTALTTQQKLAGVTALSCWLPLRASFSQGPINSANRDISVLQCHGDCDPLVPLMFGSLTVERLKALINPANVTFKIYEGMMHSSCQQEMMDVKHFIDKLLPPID
Chain of Platelet-activating factor acetylhydrolase 2, cytoplasmic (Mus musculus) (Q8VDG7 whole entry, looked up): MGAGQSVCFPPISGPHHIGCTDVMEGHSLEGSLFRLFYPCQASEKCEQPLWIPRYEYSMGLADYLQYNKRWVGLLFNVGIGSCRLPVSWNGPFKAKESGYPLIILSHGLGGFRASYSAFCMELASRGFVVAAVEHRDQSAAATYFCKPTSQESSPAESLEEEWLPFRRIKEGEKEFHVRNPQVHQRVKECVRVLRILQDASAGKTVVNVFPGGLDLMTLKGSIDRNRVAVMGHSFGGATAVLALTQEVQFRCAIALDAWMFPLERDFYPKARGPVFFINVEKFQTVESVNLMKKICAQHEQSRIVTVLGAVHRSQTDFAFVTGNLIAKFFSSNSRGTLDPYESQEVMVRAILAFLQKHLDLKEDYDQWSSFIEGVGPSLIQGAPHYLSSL
Chain of Monoacylglycerol lipase ABHD6 (Mus musculus) (Q8R2Y0 whole entry, looked up): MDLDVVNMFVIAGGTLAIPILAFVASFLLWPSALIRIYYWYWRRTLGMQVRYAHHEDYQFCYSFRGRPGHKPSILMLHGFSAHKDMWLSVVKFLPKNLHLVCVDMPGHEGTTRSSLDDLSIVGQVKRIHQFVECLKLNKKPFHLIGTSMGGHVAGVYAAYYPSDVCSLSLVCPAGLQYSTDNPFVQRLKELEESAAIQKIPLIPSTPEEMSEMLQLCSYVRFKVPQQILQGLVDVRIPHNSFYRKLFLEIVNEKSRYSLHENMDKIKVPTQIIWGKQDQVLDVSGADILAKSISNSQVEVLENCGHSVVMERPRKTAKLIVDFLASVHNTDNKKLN
Chain of Prolyl endopeptidase (Mus musculus) (Q9QUR6 whole entry, looked up): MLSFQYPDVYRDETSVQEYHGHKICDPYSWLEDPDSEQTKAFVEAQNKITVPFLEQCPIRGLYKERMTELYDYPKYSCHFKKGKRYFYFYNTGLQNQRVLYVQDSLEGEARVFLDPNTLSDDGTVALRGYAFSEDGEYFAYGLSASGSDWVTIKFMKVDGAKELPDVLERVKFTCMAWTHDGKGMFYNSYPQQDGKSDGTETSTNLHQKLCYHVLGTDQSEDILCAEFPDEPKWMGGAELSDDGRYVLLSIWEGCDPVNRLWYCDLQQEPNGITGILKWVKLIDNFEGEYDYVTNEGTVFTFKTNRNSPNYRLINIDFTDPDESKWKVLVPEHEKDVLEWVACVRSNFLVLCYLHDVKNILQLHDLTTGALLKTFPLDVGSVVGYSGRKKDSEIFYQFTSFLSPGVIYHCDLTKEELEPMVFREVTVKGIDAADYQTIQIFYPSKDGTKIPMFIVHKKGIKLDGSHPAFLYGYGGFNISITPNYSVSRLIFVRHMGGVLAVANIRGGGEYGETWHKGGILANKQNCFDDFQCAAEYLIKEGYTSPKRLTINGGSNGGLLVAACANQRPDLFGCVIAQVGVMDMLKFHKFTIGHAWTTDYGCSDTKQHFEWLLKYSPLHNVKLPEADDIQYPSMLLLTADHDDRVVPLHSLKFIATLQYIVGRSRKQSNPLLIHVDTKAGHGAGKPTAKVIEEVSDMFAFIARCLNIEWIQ
Chain of Palmitoyl-protein thioesterase ABHD10, mitochondrial (Mus musculus) (Q6PE15 whole entry, looked up): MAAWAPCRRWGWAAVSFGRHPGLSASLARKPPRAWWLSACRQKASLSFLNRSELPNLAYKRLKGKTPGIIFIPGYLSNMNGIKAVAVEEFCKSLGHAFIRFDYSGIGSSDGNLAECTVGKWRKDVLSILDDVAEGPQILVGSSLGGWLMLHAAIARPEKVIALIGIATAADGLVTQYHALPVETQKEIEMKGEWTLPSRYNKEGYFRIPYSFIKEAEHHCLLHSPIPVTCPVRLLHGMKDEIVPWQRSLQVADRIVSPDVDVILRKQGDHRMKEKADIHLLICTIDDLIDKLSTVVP

`COC(=O)N1C(=O)[C@](c2ccccc2)(C2CCCC2)N1C(=O)OC` was tested, and the SILAC ratio (probe labeling remaining) (Abhd11) was 0.946 (inactive), the SILAC ratio (probe labeling remaining) (Abhd12) was 1.13 (inactive) and the SILAC ratio (probe labeling remaining) (Ache) was 0.689 (inactive). The SILAC ratio (probe labeling remaining) (Acot1) was 0.914 (inactive), the SILAC ratio (probe labeling remaining) (Acot2) was 0.873 (inactive) and the SILAC ratio (probe labeling remaining) (Acot7) was 1.32 (inactive). For the same compound, the SILAC ratio (probe labeling remaining) (Acot9) was 0.889 (inactive), the SILAC ratio (probe labeling remaining) [1] was 1 (inactive) and the SILAC ratio (probe labeling remaining) (Apeh) was 0.821 (inactive). For the same compound, the SILAC ratio (probe labeling remaining) (Bat5) was 1.06 (inactive), the SILAC ratio (probe labeling remaining) (Ctsa) was 0.869 (inactive) and the SILAC ratio (probe labeling remaining) (Ddhd2) was 1.19 (inactive). The SILAC ratio (probe labeling remaining) (Dpp7) was 0.846 (inactive), the SILAC ratio (probe labeling remaining) (Dpp8) was 0.859 (inactive) and the SILAC ratio (probe labeling remaining) (Dpp9) was 0.937 (inactive). The SILAC ratio (probe labeling remaining) (Faah) was 1.06 (inactive), the SILAC ratio (probe labeling remaining) (Fam108b1) was 1.2 (inactive) and the SILAC ratio (probe labeling remaining) (Fasn) was 0.971 (inactive). For the same compound, the SILAC ratio (probe labeling remaining) (Htra2) was 1.07 (inactive), the SILAC ratio (probe labeling remaining) (Iah1) was 1 (inactive) and the SILAC ratio (probe labeling remaining) (Lypla2) was 0.927 (inactive). The SILAC ratio (probe labeling remaining) (Lyplal1) was 1.29 (inactive), the SILAC ratio (probe labeling remaining) [2] was 0.98 (inactive) and the SILAC ratio (probe labeling remaining) (Nceh1) was 1.01 (inactive). For the same compound, the SILAC ratio (probe labeling remaining) (Pafah1b2) was 0.887 (inactive), the SILAC ratio (probe labeling remaining) (Pafah1b3) was 0.962 (inactive) and the SILAC ratio (probe labeling remaining) [3] was 0.951 (inactive). For the same compound, the SILAC ratio (probe labeling remaining) (Parl) was 0.995 (inactive), the SILAC ratio (probe labeling remaining) (Pgap1) was 1.1 (inactive) and the SILAC ratio (probe labeling remaining) (Pla2g15) was 1.01 (inactive). The SILAC ratio (probe labeling remaining) (Pla2g6) was 0.796 (inactive), the SILAC ratio (probe labeling remaining) [4] was 0.913 (inactive) and the SILAC ratio (probe labeling remaining) (Pme1) was 0. For the same compound, the SILAC ratio (probe labeling remaining) (Pnpla8) was 1.09 (inactive), the SILAC ratio (probe labeling remaining) (Ppt2) was 0.812 (inactive) and the SILAC ratio (probe labeling remaining) (Prcp) was 0.717 (inactive). The SILAC ratio (probe labeling remaining) (Prepl) was 0.931 (inactive), the SILAC ratio (probe labeling remaining) [5] was 1.01 (inactive) and the SILAC ratio (probe labeling remaining) (Rbbp9) was 1.06 (inactive). For the same compound, the SILAC ratio (probe labeling remaining) (Serhl) was 1.12 (inactive).
